Reference: patent US11252960B2 (KIMBERLY-CLARK WORLDWIDE, INC., priority 2017, dated 2022)

Key:
[1] = test system: Burkholderia cepacia (ATCC 25416); test: Anti-bacterial Minimum Inhibitory Concentration (MIC) Method, microbroth dilution; type: cell-based; conditions: CAMHB, 37° C., 24 hours, pH 4.5-adjusted stock
Procedure: (§1) Anti-Bacterial and Anti-Fungal Minimum Inhibitory Concentration (MIC) Method Method: Microbroth Dilution Method (96-well format). Test item: […] Solvent: Sterile MilliQ water and 0.1 M Citrate Buffer pH 4.5 Media used: • Bacterial: Cation-Adjusted Mueller-Hinton Broth (CAMHB) • Fungi: RPMI-1640 […] Fungi: • Incubation Temperature: • 25° C. (Candida albicans) • 35° C. (Aspergillus brasiliensis) • Incubation Time: 48 hours • Inoculum Size: 5×10^4 cfu/mL • Strains: • Candida albicans (ATCC 10231) • Aspergillus brasiliensis (ATCC 16404) • End point: Inhibition of growth, Spectrophotometer Reading @ 600 nm • Reference standards: […] All solubilized and pH 4.5-adjusted test compounds were filter-sterilized before subjecting to MIC study. […] All the strains were inoculated on their respective agar medium and incubated under conditions/durations detailed above. • Preparation of inoculum: • The bacterial colony suspension in 0.85% saline was adjusted to 1 McFarland's standard using […] which was further diluted to 1:100 in CAMHB. The fungal suspension for inoculation was prepared in 0.85% saline from 6 days old culture (for mold, A. brasiliensis) and from 2 days old culture (for yeast, C. albicans) from Sabouraud Dextrose agar medium. […] Micro titer plates were prepared as per the CLSI recommendations. One hundred and seventy five microliters of Cation-adjusted Muller Hinton Broth (CAMHB) was added to the first column of a 96 well flat bottom plate, which is the media control. Second column is for the stocks of the test compounds and reference standards from which dilutions are made. Then 175 μL of CAMHB was added to the 5th, 8th and 11th columns, 75 μL of CAMHB to the 4th, 7th and 10th columns and 50 μL of CAMHB to the 3rd, 6th and 9th columns and the last column was the organism control.

[2] = test system: Escherichia coli (ATCC 8739); test: as above; type: cell-based; conditions: CAMHB, 37° C., 24 hours, pH 4.5-adjusted stock
Procedure: as §1

[3] = test system: Pseudomonas aeruginosa (ATCC 9027); test: as above; type: cell-based; conditions: CAMHB, 37° C., 24 hours, pH 4.5-adjusted stock
Procedure: as §1

[4] = test system: Staphylococcus aureus (ATCC 6538); test: as above; type: cell-based; conditions: CAMHB, 37° C., 24 hours, pH 4.5-adjusted stock
Procedure: as §1

[5] = test system: Aspergillus brasiliensis (ATCC 16404); test: Anti-fungal Minimum Inhibitory Concentration (MIC) Method, microbroth dilution; type: cell-based; conditions: RPMI-1640, 35° C., 48 hours, pH 4.5-adjusted stock
Procedure: (§2) Anti-Bacterial and Anti-Fungal Minimum Inhibitory Concentration (MIC) Method Method: Microbroth Dilution Method (96-well format). Test item: […] Solvent: Sterile MilliQ water and 0.1 M Citrate Buffer pH 4.5 Media used: • Bacterial: Cation-Adjusted Mueller-Hinton Broth (CAMHB) • Fungi: RPMI-1640 Fungi: • Incubation Temperature: • 25° C. (Candida albicans) • 35° C. (Aspergillus brasiliensis) • Incubation Time: 48 hours • Inoculum Size: 5×10^4 cfu/mL • Strains: • Candida albicans (ATCC 10231) • Aspergillus brasiliensis (ATCC 16404) • End point: Inhibition of growth, Spectrophotometer Reading @ 600 nm • Reference standards: […] All solubilized and pH 4.5-adjusted test compounds were filter-sterilized before subjecting to MIC study. […] All the strains were inoculated on their respective agar medium and incubated under conditions/durations detailed above. • Preparation of inoculum: • The bacterial colony suspension in 0.85% saline was adjusted to 1 McFarland's standard using […] which was further diluted to 1:100 in CAMHB. The fungal suspension for inoculation was prepared in 0.85% saline from 6 days old culture (for mold, A. brasiliensis) and from 2 days old culture (for yeast, C. albicans) from Sabouraud Dextrose agar medium. […] Micro titer plates were prepared as per the CLSI recommendations. One hundred and seventy five microliters of Cation-adjusted Muller Hinton Broth (CAMHB) was added to the first column of a 96 well flat bottom plate, which is the media control. Second column is for the stocks of the test compounds and reference standards from which dilutions are made. Then 175 μL of CAMHB was added to the 5th, 8th and 11th columns, 75 μL of CAMHB to the 4th, 7th and 10th columns and 50 μL of CAMHB to the 3rd, 6th and 9th columns and the last column was the organism control.

[6] = test system: Candida albicans (ATCC 10231); test: as above; type: cell-based; conditions: RPMI-1640, 25° C., 48 hours, pH 4.5-adjusted stock
Procedure: as §2

[7] = type: physicochemical; conditions: pH 4.5
Procedure: This water was used as a test media for determining the solubility of test/reference items. Stock solutions of concentration 1 mg/mL for test items/reference items was prepared in methanol. The stock solution will be used for preparation of calibration curve standards. Calibration curve of test/reference items was prepared by serially dilution consisting of 4-5-6 concentrations in 96 well format. […] The method was as follows: Calibration curve of test items were prepared by serial dilution consisting of 8 concentrations. […] Water, 50:50). […] 40 mg of test items were weighed into tubes. […] The initial pH of the solubility samples were recorded. […] Then, the solutions were observed visually for any precipitation. […] An aliquot of the supernatant were diluted with equal volume of methanol. […] The samples were then transferred to UV plate and scanned at λmax of that particular test/reference item. Compound #12 was transferred to auto-sampler vials and submitted for LC-MS/MS analysis.

[8] = Determination of Dissociation Constant (pKa) by Potentiometric Titration Method; type: physicochemical; conditions: 22° C.
Procedure: Potentiometric Titration Method: A calibrated pH meter was used for the assay. 50 mL solution of each test/reference item solution (0.1 mg/mL) was added to four beakers (two for acid titration and two for base titration). 0.1 N Sodium hydroxide (NaOH) solution was prepared as titrant solution. The pH electrode was placed into the beaker containing test/reference item solution. The initial pH of the solution will be recorded. 100 μL of 0.1 N NaOH was added successively with stirring and the pH at each addition was recorded. Base titrations were carried out individually in duplicates until a sudden shift in the pH was observed.

[9] = ultrapure water, pH 4.5, Table 1, 0.1 mg/ml
[10] = ultrapure water, pH 4.5, Table 3, 0.1 mg/ml

| Compound | MIC (%) B. cepacia ([1]; Table 1) [%] | MIC (%) B. cepacia ([1]; Table 4) [%] | MIC (%) E. coli ([2]; Table 1) [%] | MIC (%) E. coli ([2]; Table 4) [%] | MIC (%) P. aeruginosa ([3]; Table 1) [%] | MIC (%) P. aeruginosa ([3]; Table 4) [%] | MIC (%) S. Aureus ([4]; Table 1) [%] | MIC (%) S. Aureus ([4]; Table 4) [%] | MIC (%) A. brasiliensis ([5]; Table 1) [%] | MIC (%) A. brasiliensis ([5]; Table 4) [%] | MIC (%) C. albicans ([6]; Table 1) [%] | MIC (%) C. albicans ([6]; Table 4) [%] | Solubility (wt %) [7] [wt %] | pKa [8, 9] | pKa [8, 10] | other results |
| --- | --- | --- | --- | --- | --- | --- | --- | --- | --- | --- | --- | --- | --- | --- | --- | --- |
| benzoic acid [reference compound] | 0.034 | 0.034 | 0.07 | 0.07 | 0.068 | 0.068 | 0.068 | 0.068 | 0.137 | 0.137 | 0.137 | 0.137 |  |  |  |  |
| CC(O)COc1ccc(C(=O)O)cc1 (centres unmarked) [Compound 7, 4-(2-hydroxypropoxy) benzoic acid] | 0.02 |  | 0.079 |  | 0.039 |  | 0.02 |  | >0.079 |  | >0.079 |  | 0.123 | 5.6 |  |  |
| O=C(OCCO)c1ccccc1 [Compound 8, Benzoic acid 2-hydroxyethyl ester] |  | 0.118 |  | 0.475 |  | 0.237 |  | 0.475 |  | 0.118 |  | 0.475 | >1.0 |  | > 7 |  |
| O=C(O)c1ccc(OCC(O)CO)cc1 (centres unmarked) [Compound 2, 4-(2,3-dihydroxypropoxy) benzoic acid] | 0.09 |  | 0.181 |  | 0.09 |  | 0.045 |  | >0.181 |  | >0.181 |  | 0.343 | 4.6 |  |  |
| O=C(O)c1ccc(OC2CC(O)C(CO)O2)cc1 (centres unmarked) [Compound 5, 4-{[4-hydroxy-5-(hydroxymethyl)oxolan-2-yl]oxy}benzoic acid] | 0.034 |  | >0.069 |  | 0.034 |  | 0.017 |  | >0.069 |  | >0.069 |  | 0.11 | 5.6 |  |  |
| O=C(O)c1ccc(OCCO)cc1 [Compound 1, 4-(2-hydroxyethoxy) benzoic acid] | 0.082 |  | 0.165 |  | 0.082 |  | 0.041 |  | >0.165 |  | >0.165 |  | 0.2779 | 4.95 |  |  |
| O=C(OCC(O)CO)c1ccccc1 (centres unmarked) [Compound 9, Benzoic acid 2,3-dihydroxypropyl ester] |  | 0.25 |  | 0.5 |  | 0.5 |  | 0.25 |  | >1 |  | >1 | >1.0 |  | > 7 | MIC (%) A. brasiliensis ([5]; Table 4, listed as #9): > 1.0%; MIC (%) C. albicans ([6]; Table 4, listed as #9): > 1.0% |
| O=C(O)c1ccc(OC2OC(CO)C(O)C2O)cc1 (centres unmarked) [Compound 4, 4-{[3,4-dihydroxy-5-(hydroxymethyl)oxolan-2-yl]oxy}benzoic acid] | 0.25 |  | 1 |  | 0.5 |  | 0.125 |  | >1 |  | >1 |  | >1.00 | 4.6 |  |  |
| O=C(OCCCCO)c1ccccc1 [Compound 10, Benzoic acid 4-hydroxy-butyl ester] |  | 0.057 |  | 0.115 |  | 0.115 |  | 0.057 |  | 0.028 |  | 0.115 | 0.47 |  | > 7 |  |
| O=C(OCCCO)c1ccccc1 [Compound 11, Benzoic acid 3-hydroxy-propyl ester] |  | 0.136 |  | 0.272 |  | >0.272 |  | 0.272 |  | 0.068 |  | 0.136 | 0.55 |  |  | pKa ([8]; pH 4.5, Table 3, 0.1 mg/ml): > 7 |
| CCC(O)COC(=O)c1ccccc1 (centres unmarked) [Compound 12, Benzoic acid 2-hydroxy-butyl ester] |  | 0.1175 |  | 0.0588 |  | >0.1175 |  | 0.1175 |  | 0.0588 |  | 0.1175 | 0.24 |  | > 7 |  |
| O=C(O)c1ccc(O[C@@H]2O[C@H](CO)[C@H](O)[C@H](O)[C@H]2O)cc1 [Compound 3, 4-{[(3R,4S,5R,6R)-3,4,5-trihydroxy-6-(hydroxymethyl)oxan-2-yl]oxy}benzoic acid] | >0.87 |  | >0.87 |  | >0.87 |  | >0.87 |  | >0.87 |  | >0.87 |  |  | 4.5 |  | MIC (%) B. cepacia ([1]; Table 1, listed as #3): > 0.87%; MIC (%) E. coli ([2]; Table 1, listed as #3): > 0.87%; MIC (%) P. aeruginosa ([3]; Table 1, listed as #3): > 0.87%; MIC (%) S. Aureus ([4]; Table 1, listed as #3): > 0.87%; MIC (%) A. brasiliensis ([5]; Table 1, listed as #3): > 0.87%; MIC (%) C. albicans ([6]; Table 1, listed as #3): > 0.87% |
